In ChEMBL document CHEMBL1240356, “Efficacy profiles of daptomycin for treatment of invasive and noninvasive pulmonary infections with Streptococcus pneumoniae” (2010) one finds Activity and log10cfu data, which are given here for 1 compound.

SMILES strings stand for the structures. The source made the active and inactive calls. The rule behind the calls is not given here.

The test system of assay [1] is Streptococcus pneumoniae. Nature of the assay: Antibacterial activity against 1.5 x 10^7 CFU Streptococcus pneumoniae serotype 2 infected in semitherapeutic C57BL/6 mouse model assessed as reduction of bacteremia at 20 mg/kg, ip measured after 1 day post infection. Also on record: dose 20 mg/kg. It counts as functional, organism-based.
For assay [2], the system named is Streptococcus pneumoniae. Nature of the assay: Antibacterial activity against high dose 1.5 x 10^7 CFU Streptococcus pneumoniae serotype 2 infected in therapeutic C57BL/6 mouse model assessed as reduction of bacteremia at 20 mg/kg, ip measured after 4 days post infection. It is filed as functional, organism-based. Also on record: dose 20 mg/kg.
For assay [3], the system named is Streptococcus pneumoniae. Nature of the assay: Antibacterial activity against high dose 1.5 x 10^7 CFU Streptococcus pneumoniae serotype 19 infected in semitherapeutic C57BL/6 mouse model assessed as reduction of bacteremia at 20 mg/kg, ip measured after 1 day post infection. It counts as functional, organism-based. Also on record: dose 20 mg/kg.
In assay [4] the test system is Streptococcus pneumoniae. Nature of the assay: Antibacterial activity against high dose 1.5 x 10^7 CFU Streptococcus pneumoniae serotype 2 infected in therapeutic C57BL/6 mouse model assessed as bacterial count in lung at 20 mg/kg, ip measured after 3 days post infection. The following applies: route intraperitoneal. It is filed as functional.
Assay [5] relates to Streptococcus pneumoniae. The assay can be described thus: Antibacterial activity against high dose 1.5 x 10^7 CFU Streptococcus pneumoniae serotype 19 infected in semitherapeutic C57BL/6 mouse model assessed as bacterial count in lung at 20 mg/kg, ip measured after 1 day post infection. It counts as functional. The settings on record: route intraperitoneal.
Assay [6] has as its system Streptococcus pneumoniae. The assay can be described thus: Antibacterial activity against 1.5 x 10^7 CFU Streptococcus pneumoniae serotype 19 infected in therapeutic C57BL/6 mouse model assessed as survival rate at 20 mg/kg, ip qd beginning at time of infection measured after 6 days post infection. It is filed as functional. The following applies: route intraperitoneal.

Assay [7] relates to Streptococcus pneumoniae. The assay can be described thus: Antibacterial activity against high dose 1.5 x 10^7 CFU Streptococcus pneumoniae serotype 19 infected in semitherapeutic C57BL/6 mouse model assessed as reduction of bacteremia at 20 mg/kg, ip measured after 2 days post infection. It counts as functional, organism-based. Set-up: dose 20 mg/kg.
Assay [8] concerns Streptococcus pneumoniae. Nature of the assay: Antibacterial activity against 1.5 x 10^7 CFU Streptococcus pneumoniae serotype 2 infected in semitherapeutic C57BL/6 mouse model assessed as reduction of bacteremia at 20 mg/kg, ip measured after 2 days post infection. It counts as functional, organism-based. Also on record: dose 20 mg/kg.
The subject of assay [9] is Streptococcus pneumoniae. Nature of the assay: Antibacterial activity against high dose 1.5 x 10^7 CFU Streptococcus pneumoniae serotype 2 infected in semitherapeutic C57BL/6 mouse model assessed as bacterial count in lung at 20 mg/kg, ip measured after 1 day post infection. It counts as functional. The settings on record: route intraperitoneal.
Assay [10] concerns Streptococcus pneumoniae. Nature of the assay: Antibacterial activity against high dose 1.5 x 10^7 CFU Streptococcus pneumoniae serotype 2 infected in therapeutic C57BL/6 mouse model assessed as bacterial count in blood at 20 mg/kg, ip measured after 3 days post infection. It is filed as functional. The following applies: route intraperitoneal.

With `CO/N=C(\C(=O)N[C@@H]1C(=O)N2C(C(=O)O)=C(CSc3nc(=O)c(O)nn3C)CS[C@H]12)c1csc(N)n1` [CEFTRIAXONE], the outcome in the assay on Streptococcus pneumoniae [1], in the assay on Streptococcus pneumoniae [2], with Streptococcus pneumoniae [3], in the assay with Streptococcus pneumoniae [7] and in the assay with Streptococcus pneumoniae [8] was Active. Further, the log10cfu in the assay with Streptococcus pneumoniae [4] turned out to be 4.6; with Streptococcus pneumoniae [5], 0.5; in the assay on Streptococcus pneumoniae [9], 0.8; in the assay on Streptococcus pneumoniae [10], 3.3. Besides, the Activity with Streptococcus pneumoniae [6] is given as 100%.
